Data: the NIST ThermoML archive (doi:10.1016/j.jct.2013.02.001)

Test: molar heat capacity at constant pressure
Details: 101.33 kPa, Crystal 1, Quantum Design PPMS relaxation calorimeter

O=P([O-])([O-])OP(=O)([O-])[O-].[Fe+2].[Fe+2] [iron(II) pyrophosphate]
Details | molar heat capacity at constant pressure [J/K/mol]
26.04 K | 20.21
26.23 K | 20.27
26.42 K | 20.35
26.51 K | 20.4
26.62 K | 20.45
26.81 K | 20.52
26.98 K | 20.63
27 K | 20.61
27.2 K | 20.71
27.39 K | 20.81
27.53 K | 20.88
27.58 K | 20.9
27.78 K | 20.99
27.98 K | 20.92
27.99 K | 20.94
28.18 K | 20.76
28.34 K | 20.71
28.53 K | 20.72
28.55 K | 20.74
28.68 K | 20.78
28.75 K | 20.76
28.95 K | 20.82
29.05 K | 20.85
29.12 K | 20.86
29.33 K | 20.93
29.51 K | 21.05
29.53 K | 20.99
29.72 K | 21.07
29.91 K | 21.11
30 K | 21.15
30.06 K | 21.18
30.11 K | 21.2
30.3 K | 21.27
30.5 K | 21.35
30.52 K | 21.34
30.7 K | 21.43
30.89 K | 21.5
31.05 K | 21.58
31.54 K | 21.77
31.86 K | 21.93
32.06 K | 22.02
32.55 K | 22.21
33.06 K | 22.48
33.6 K | 22.75
34.07 K | 22.98
35 K | 23.58
35.39 K | 23.86
39.3 K | 26.23
40 K | 26.79
43.62 K | 29.29
45 K | 30.48
48.44 K | 33.24
50 K | 34.53
53.8 K | 37.9
55 K | 38.88
59.7 K | 43.41
